Laboratory results as given in US20250120958A1, “Treatment of GM2 Gangliosidosis” (Azafaros B.V., priority 2022, published 2025).
Read-outs that look alike come from different tables or passages of the source.

How the values were obtained:
[1] = Dynamic vapour sorption (DVS); type: physicochemical
From the text: In addition, the behaviour of the sample of the Form 3 crystalline form of compound of formula (I) obtained by equilibration with ethyl acetate was investigated under variable water vapour pressures (DVS measurement). At the highest relative humidity of 95% the sample absorbed about 1.2% of water that was released when the relative humidity was returned to the 50% RH. The amount of absorbed water is small, and the water sorption is reversible. […] For Form 2, at high relative humidity the sample absorbed about 18% of water; however, most of the absorbed water was released when the relative humidity was returned to the 50% RH.
Dynamic vapour sorption (DVS) measurements were performed with an SPS11-100n “Sorptions Prufsystem” from ProUmid (formerly “Projekt Messtechnik”), August-Nagel-Str. 23, 89079 Ulm (Germany). About 5 mg to 20 mg of sample was put into an aluminum sample pan. Humidity change rates of 5% per hour were used.

[2] = test system: Sandhoff mouse model (Hexb (−/−)); test: Open field test (OFT) in Sandhoff mice; type: in vivo; conditions: Hexb (−/−) mice vs vehicle, 0.5-6 mg/kg/day
Method: The OFT was conducted using a 40×40 cm sized apparatus in a quiet room and constant lighting conditions. Trial duration was 5 min. All trials were videotaped and later analysed using the tracking software Smart® Version 3.0.05. Measures included the average locomotion speed, walked distance and time spent in outer and inner zones of the field.
Behavioral assessments, including open field tests (OFT, ActiMot, TSE systems) and rotarod (RR, IITC Life Sciences), were also performed. The OFT assessed motor skills by placing a mouse into a square box with high walls for 5 minutes to record several parameters, including distance travelled (centimetres) and resting time in zone (seconds). Motor coordination of mice was assessed using a RR apparatus as per previously published protocol (Osmon, Vyas et al. 2018). Briefly, mice were placed on moving cylinders that accelerated from 4 to 40 rotations per minute (rpm) over 5 minutes. Each mouse was allowed three trials on the RR with a minimum of 10 minutes for rest in-between assessments. The highest number achieved was recorded for each of the following parameters: latency to fall, end rotations per minute and distance travelled.

[3] = target: T1, GCS (Homo sapiens, UniProt Q16739); test: In vitro potency on GCS (glucosylceramide synthase); type: biochemical
T1 sequence (Q16739 1-394): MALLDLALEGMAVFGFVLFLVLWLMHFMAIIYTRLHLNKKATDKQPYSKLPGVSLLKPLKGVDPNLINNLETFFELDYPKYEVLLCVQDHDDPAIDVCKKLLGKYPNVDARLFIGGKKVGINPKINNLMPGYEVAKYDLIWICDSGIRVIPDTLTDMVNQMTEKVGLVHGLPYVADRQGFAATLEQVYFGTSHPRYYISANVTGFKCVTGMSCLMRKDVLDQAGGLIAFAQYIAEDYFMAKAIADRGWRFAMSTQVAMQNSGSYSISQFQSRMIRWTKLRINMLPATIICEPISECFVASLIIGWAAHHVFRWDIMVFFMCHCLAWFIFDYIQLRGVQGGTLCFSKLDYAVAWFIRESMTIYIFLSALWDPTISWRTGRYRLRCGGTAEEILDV

[4] = test system: GFAP (Glial fibrillary acidic protein); test: GFAP immunofluorescence in brain sections; type: in vivo, mouse; conditions: for GFAP staining, treated vs vehicle: midsections
From the text: Brain samples were collected, rinsed with saline and blotted dry. Samples were fixed in 4% PFA for immunohistochemical analyses; frozen and kept for gene expression and molecular biology analyses; and used frozen for LC-MS/MS analysis.
GFAP (Glial fibrillary acidic protein) a class-III intermediate filament protein, is a cell-specific marker that, during the development of the central nervous system, distinguishes astrocytes from other glial cells. Intermediate filaments form networks that provide support and strength to cells. Several molecules of glial fibrillary acidic protein bind together to form the type of intermediate filament found in astroglial cells. Astroglial cells support and nourish cells in the brain and spinal cord. If brain or spinal cord cells are injured through trauma or disease, astroglial cells react by rapidly producing more glial fibrillary acidic protein.

[5] = test system: Sandhoff mouse model (Hexb (−/−)); test: Survival study in Sandhoff mouse model; type: in vivo; conditions: Hexb (−/−) mice
From the text: (strain: B6; 129S4-Hexbtm1Rlp/J). The mouse line was maintained by crossing homozygous −/− males with heterozygous females (generating litters with 50%−/− and 50%+/−) under specific pathogen-free conditions. All mice were housed in individual, ventilated cages (IVCs) with 12-h light/dark cycles with food and water ad libitum. Young-adult mice of the same genetic C57BL/6 background were from Jackson Laboratories. Breeding of Hexb mutants will target needs of the “Long-term” cohorts first, followed by the “16-week” biomarker study.
Cohort 1: There were a total of 6 dose groups and 2 vehicle groups using both Hexb+/− and Hexb−/− animals. […] Dosing occurred daily from day 30 to day 170, unless the animal was prematurely euthanized per protocol.
A subsequent study to explore lower doses was also performed (in the same manner as in Example 2) in which doses of 0.02, 0.06, 0.2 and 0.5 mg/kg/day were used. […] It is unclear why the 0.06 mg/kg/day had less survival as formulations were checked and confirmed accurate dosing (internal data).

[6] = Plasma pharmacokinetics after 16 weeks of once daily administration (LC-MS/MS); type: in vivo, mouse
Method: At the end of the defined treatment period, mice were humanely euthanized by transcardial perfusion with Ringer solution after C02 asphyxiation. […]. Before perfusion, blood samples were collected via cardiac puncture into K2EDTA tubes and stored on wet ice. Whole blood was processed to plasma by centrifugation (3000 g for 10 minutes at 5° C.) within 30 min of collection and stored at −75° C.
Unless otherwise stated, the methodology and sample collection were performed as in Example 2.

OC[C@H]1[C@@H](O)[C@H](O)[C@@H](O)CN1CCCCCOCc1ccc(-c2ccccc2)c(F)c1 [AZ-3102]
hygroscopicity ([1]; DVS): non-hygroscopic or substantially non-hygroscopic | water absorbed (DVS) ([1]; highest relative humidity of 95%, reversible): about 1.2% | OFT assessments (Total Distance Travelled, Resting Time in Zone) [2]: significantly improved | inhibitory activity on GCS [3]: low nM | IC50 ([3]; in vitro potency): 2.54 nM | GFAP immunofluorescence, Mean ([4]; caudal section of the brain, Het (Hexb+/−), Female): 508.99 | GFAP immunofluorescence, Mean ([4]; caudal section of the brain, Het (Hexb+/−), Male): 425.10 | GFAP immunofluorescence, Mean ([4]; caudal section of the brain, KO (Hexb−/−), Female): 1656.84 | GFAP immunofluorescence, Mean ([4]; caudal section of the brain, KO (Hexb−/−), Male): 1762.82 | GFAP immunofluorescence, Mean ([4]; midsection of the brain, Het (Hexb+/−), Female): 298.81 | GFAP immunofluorescence, Mean ([4]; midsection of the brain, Het (Hexb+/−), Male): 395.99 | GFAP immunofluorescence, Mean ([4]; midsection of the brain, KO (Hexb−/−), Female): 747.75 | GFAP immunofluorescence, Mean ([4]; midsection of the brain, KO (Hexb−/−), Male): 866.38 | GFAP staining, treated vs vehicle ([4]; Hexb−/− females): statistical decrease | GFAP staining, treated vs vehicle ([4]; Hexb−/− males): trend to having a decrease | median survival ([5]; 0.02 mg/kg/day): 120 days | median survival ([5]; 0.06 mg/kg/day): 116 days | median survival ([5]; 0.2 mg/kg/day): 133 days | median survival ([5]; 0.5 mg/kg/day): 138 days | increase of average median survival ([5]; 0.5-6 mg/kg/day oral gavage daily, vs vehicle (115 days)): 26 days | minimal effective dose on survival ([5]; once daily gavage): 0.2 mg/kg/day | increase in survival / life expectancy ([5]; treated vs vehicle/untreated): 22% | Cmax difference between lowest and highest dose ([6]; 6 vs 0.5 mg/kg/day): approximately 7 fold | Cmax ([6]; Hexb (−/−) (Sandhoff mice), mouse, oral, plasma, 0.5 to 6 mg/kg/day, steady state, read-out: Cmax, range over doses): 100 to 674 ng/mL | AUC(0-t) ([6]; Hexb (−/−) (Sandhoff mice), mouse, oral, plasma, 0.5 to 6 mg/kg/day, steady state, read-out: mean AUC0-24, range over doses): 417 to 3610 ng·h/mL | AUC(0-t) ([6]; Hexb (−/−) (Sandhoff model), mouse, plasma, po, Sand A, Hexb (−/−), 6 mg/kg/day, 16 weeks once daily, read-out: AUC0-24): 3610 ng·h/mL | Cmax ([6]; Hexb (−/−) (Sandhoff model), mouse, plasma, po, Sand A, Hexb (−/−), 6 mg/kg/day, 16 weeks once daily, read-out: Cmax): 674 ng/mL | AUC(0-t) ([6]; Hexb (−/−) (Sandhoff model), mouse, plasma, po, Sand B, Hexb (−/−), 3 mg/kg/day, 16 weeks once daily, read-out: AUC0-24): 1980 ng·h/mL | Cmax ([6]; Hexb (−/−) (Sandhoff model), mouse, plasma, po, Sand B, Hexb (−/−), 3 mg/kg/day, 16 weeks once daily, read-out: Cmax): 446 ng/mL | AUC(0-t) ([6]; Hexb (−/−) (Sandhoff model), mouse, plasma, po, Sand D, Hexb (−/−), 1.5 mg/kg/day, 16 weeks once daily, read-out: AUC0-24): 987 ng·h/mL | Cmax ([6]; Hexb (−/−) (Sandhoff model), mouse, plasma, po, Sand D, Hexb (−/−), 1.5 mg/kg/day, 16 weeks once daily, read-out: Cmax): 159 ng/mL | AUC(0-t) ([6]; Hexb (−/−) (Sandhoff model), mouse, plasma, po, Sand E, Hexb (−/−), 0.5 mg/kg/day, 16 weeks once daily, read-out: AUC0-24): 417 ng·h/mL | Cmax ([6]; Hexb (−/−) (Sandhoff model), mouse, plasma, po, Sand E, Hexb (−/−), 0.5 mg/kg/day, 16 weeks once daily, read-out: Cmax): 100 ng/mL | concentration at 24 h ([6]; Hexb (−/−) and Hexb (+/−), mouse, plasma, oral, all doses): ~1 ng/mL | Cmax/D ([6]; Sand E, Hexb (−/−), 0.5 mg/kg/day): 200 (ng/mL)/(mg/kg) | AUC(0-t) ([6]; mouse, plasma, po, Het B, Hexb (+/−), 3 mg/kg/day, 16 weeks once daily, read-out: AUC0-24): 1960 ng·h/mL | Cmax ([6]; mouse, plasma, po, Het B, Hexb (+/−), 3 mg/kg/day, 16 weeks once daily, read-out: Cmax): 370 ng/mL
